Measured values taken from patent EP4603105A1, “PHARMACEUTICAL COMPOSITION CONTAINING CYCLIC COMPOUND HAVING SELECTIVE KRAS INHIBITORY EFFECT AGAINST HRAS AND NRAS” (CHUGAI SEIYAKU KABUSHIKI KAISHA, priority 2022, dated 2024).
*1 amine or outer side, *2 acyl side, *3 side chain or, on linkers, in order; H or OH if unused. Where a SMILES comes first, the peptide text is derived from it. Bridges are numbered along the chain shown (N, C = ends). [ ]: non-standard residue; d: D form. The star is where a group is joined. hPhe(3-Cl-4-CF3) = N[C@@H](CCc1ccc(C(F)(F)F)c(Cl)c1)C(=O)O; NPrPhe(4-CF3) = CCCN[C@@H](Cc1ccc(C(F)(F)F)cc1)C(=O)O; hPhe(3,4-Cl2) = N[C@@H](CCc1ccc(Cl)c(Cl)c1)C(=O)O; X30 = CCN([C@H](C(=O)[*:2])C1CCCC1)[*:1]; NMeGly(cPent) = CN[C@H](C(=O)O)C1CCCC1; Hyp = O=C(O)[C@@H]1C[C@@H](O)CN1; NMeD = CN[C@@H](CC(=O)O)C(=O)O; NMeL = CN[C@@H](CC(C)C)C(=O)O; Morpholide = C1CN(*)CCO1; Ac5c = NC1(C(=O)O)CCCC1; Aze = O=C(O)[C@@H]1CCN1; Ac4c = NC1(C(=O)O)CCC1; Sar = CNCC(=O)O

Columns and labels:
HRAS wild-type protein = HRAS wild-type protein (Homo sapiens, UniProt P01112); experiment: Binding to HRAS by surface plasmon resonance (SPR), KD and KD ratio to KRAS
Sequence of HRAS wild-type protein (P01112 whole entry): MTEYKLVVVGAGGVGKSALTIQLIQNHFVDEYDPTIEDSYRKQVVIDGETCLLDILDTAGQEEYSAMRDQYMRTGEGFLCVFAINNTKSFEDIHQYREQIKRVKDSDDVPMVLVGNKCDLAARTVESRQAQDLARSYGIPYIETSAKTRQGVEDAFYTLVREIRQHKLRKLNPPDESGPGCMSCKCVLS
Summary of the method: (§1)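 Single-cycle kinetics on GDP-loaded biotin-Avi RAS captured to ~100–300 RU; 75 s ascending injections, 100 µL/min, 30°C. HBS pH 7.4 + 10 mM MgCl2/10 µM GDP/4% DMSO. 1:1 fit, KD.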

[1] = molecular target: GDP-bound NRAS wild-type protein (Homo sapiens, UniProt P01111); experiment: Binding to NRAS by surface plasmon resonance (SPR), KD and KD ratio to KRAS
Sequence of GDP-bound NRAS wild-type protein (P01111 whole entry): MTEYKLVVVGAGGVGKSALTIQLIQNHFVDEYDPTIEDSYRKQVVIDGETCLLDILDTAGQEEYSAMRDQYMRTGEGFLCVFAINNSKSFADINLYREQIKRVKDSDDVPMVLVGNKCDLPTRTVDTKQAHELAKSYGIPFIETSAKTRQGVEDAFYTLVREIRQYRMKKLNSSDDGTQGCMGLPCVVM
Summary of the method: as §1

[2] = test system: human lung cancer strain NCI-H441; format: cell-based
Summary of the method: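 Proliferation was scored by […] measured after the reagent was added to cultures kept at 37°C in 5% carbon dioxide.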

[3] = ratio of KD for HRAS wild-type protein to KD for KRAS
[4] = ratio of KD for GDP-bound NRAS wild-type protein to KD for KRAS
[5] = ratio of KD value for HRAS wild-type protein to KD value for KRAS (SPR)
[6] = ratio of KD value for GDP-bound NRAS wild-type protein to KD value for KRAS (SPR)
[7] = ratio of the KD value with respect to HRAS wild-type protein to the KD value with respect to KRAS
[8] = ratio of the KD value with respect to GDP-bound NRAS wild-type protein to the KD value with respect to KRAS

Structure (SMILES) | HRAS /KRAS (HRAS wild-type protein; [3]) | NRAS /KRAS [1, 4] | IC50 [2] [nM] | HRAS /KRAS (HRAS wild-type protein; [5]) | NRAS /KRAS [1, 6] | HRAS /KRAS (HRAS wild-type protein; [7]) | NRAS /KRAS [1, 8]
CC[C@H](C)[C@@H]1NC(=O)[C@H](CC(C)C)N(C)C(=O)C[C@@H](C(=O)N2CCOCC2)N(C)C(=O)[C@H](C2CCCC2)N(C)C(=O)C2(CCCC2)NC(=O)[C@@H]2CCCN2C(=O)[C@H](CCc2ccc(C(F)(F)F)c(Cl)c2)NC(=O)CN(C)C(=O)[C@H](C2CCCC2)N(CC)C(=O)CN(C)C(=O)CN(C)C1=O [PP0024] ([NMeL]I[Sar][Sar][X30][Sar][hPhe(3-Cl-4-CF3)]P[Ac5c][NMeGly(cPent)][NMeD]-Morpholide; lactam N-11) | C (A compound having a KD ratio of 0.1 or more and less than 3 is denoted as C) | B (a compound having 3 or more and less than 10 is denoted as B) | 102 | – | – | – | –
CCCOC[C@H]1C(=O)N[C@@H]([C@@H](C)CC)C(=O)N(C)CC(=O)N(C)[C@H]2C/C=C\CCN(C2=O)[C@@H](Cc2ccc(C(F)(F)F)cc2)C(=O)N(C)CC(=O)N[C@@H](CCc2cc(F)c(C(F)(F)F)c(F)c2)C(=O)N2C[C@H](F)C[C@H]2C(=O)NC2(CC(C)(C)C2)C(=O)N(C)[C@@H](C2CCCC2)C(=O)N(C)[C@H](C(=O)N(C)CCC)CC(=O)N1C [PP1698] | – | – | 5.1 | A (a compound having 10 or more and less than 20 is denoted as A) | A (a compound having 10 or more and less than 20 is denoted as A) | – | –
CC[C@H](C)[C@@H]1NC(=O)[C@H](CC(C)C)N(C)C(=O)C[C@@H](C(=O)N2CCC2)N(C)C(=O)[C@H](C2CCCC2)N(C)C(=O)C2(CCCC2)NC(=O)[C@@H]2CCCN2C(=O)[C@H](CCc2cc(F)c(C(F)(F)F)c(F)c2)NC(=O)CN(C)C(=O)[C@H](Cc2ccc(C(F)(F)F)cc2)N2CCCC[C@@H](C2=O)N(C)C(=O)CN(C)C1=O [PP0570] | – | – | 7.5 | – | – | B (a compound having 3 or more and less than 10 is denoted as B) | B (a compound having 3 or more and less than 10 is denoted as B)
CCO[C@@H]1C[C@H]2C(=O)NC3(CC(C)(C)C3)C(=O)N(C)[C@@H](C3CCCC3)C(=O)N(C)[C@H](C(=O)N(C)CC)CC(=O)N(C)[C@@H](CC)C(=O)N[C@@H]([C@@H](C)CC)C(=O)N(C)CC(=O)N(C)[C@H]3C/C=C\CCN(C3=O)[C@@H](Cc3ccc(C)cc3)C(=O)N(C)CC(=O)N[C@@H](CCc3ccc(C(F)(F)F)c(Cl)c3)C(=O)N2C1 [PP1880] | – | – | 15.6 | B (a compound having 3 or more and less than 10 is denoted as B) | A (a compound having 10 or more and less than 20 is denoted as A) | – | –
CCCN1C(=O)CN(C)C(=O)[C@@H]2CCN2C(=O)[C@H]([C@@H](C)CC)NC(=O)[C@H](CC(C)C)N(C)C(=O)C[C@@H](C(=O)N2CCOCC2)NC(=O)[C@H](C2CCCC2)N(C)C(=O)C2(CCC2)NC(=O)[C@@H]2C[C@@H](OCC)CN2C(=O)[C@H](CCc2ccc(C(F)(F)F)c(Cl)c2)NC(=O)CN(C)C(=O)[C@@H]1Cc1ccc(C(F)(F)F)cc1 [PP0342] ([NMeL]I[Aze][Sar][NPrPhe(4-CF3)][Sar][hPhe(3-Cl-4-CF3)][Hyp](Et)[Ac4c][NMeGly(cPent)]D-Morpholide; lactam N-11) | B (a compound having 3 or more and less than 10 is denoted as B) | B (a compound having 3 or more and less than 10 is denoted as B) | 141 | – | – | – | –
CC[C@H](C)[C@@H]1NC(=O)[C@H](CC)N(C)C(=O)C[C@@H](C(=O)N(C)C)N(C)C(=O)[C@H](C2CCCC2)N(C)C(=O)C2(CCC2)NC(=O)[C@@H]2C[C@@H](N3CCC(F)(F)CC3)CN2C(=O)[C@H](CCc2cc(F)c(C(F)(F)F)c(F)c2)NC(=O)CN(C)C(=O)[C@H](Cc2ccc(C(F)(F)F)cc2)N2CCCC[C@@H](C2=O)N(C)C(=O)CN(C)C1=O [PP0656] | – | – | 26.5 | – | – | C (A compound having a KD ratio of 0.1 or more and less than 3 is denoted as C) | C (A compound having a KD ratio of 0.1 or more and less than 3 is denoted as C)
CC[C@H](C)[C@@H]1NC(=O)[C@H](CC(C)C)N(C)C(=O)C[C@@H](C(=O)N2CCOCC2)N(C)C(=O)[C@H](C2CCCC2)N(C)C(=O)C2(CCCC2)NC(=O)[C@@H]2CCCN2C(=O)[C@H](CCc2ccc(C(F)(F)F)c(Cl)c2)NC(=O)CN(C)C(=O)[C@H](Cc2ccc(OC)cc2)N2CCCC[C@@H](C2=O)N(C)C(=O)CN(C)C1=O [PP0534] | – | – | 16.7 | – | – | B (a compound having 3 or more and less than 10 is denoted as B) | B (a compound having 3 or more and less than 10 is denoted as B)
CCCN1C(=O)CN(C)C(=O)CN(C)C(=O)[C@H]([C@@H](C)CC)NC(=O)[C@H](CC(C)C)N(C)C(=O)C[C@@H](C(=O)N2CCOCC2)N(C)C(=O)[C@H](C2CCCC2)N(C)C(=O)C2(CCCC2)NC(=O)[C@@H]2CCCN2C(=O)[C@H](CCc2ccc(Cl)c(Cl)c2)NC(=O)CN(C)C(=O)[C@@H]1Cc1ccc(C(F)(F)F)cc1 [PP0232] ([NMeL]I[Sar][Sar][NPrPhe(4-CF3)][Sar][hPhe(3,4-Cl2)]P[Ac5c][NMeGly(cPent)][NMeD]-Morpholide; lactam N-11) | B (a compound having 3 or more and less than 10 is denoted as B) | B (a compound having 3 or more and less than 10 is denoted as B) | 4.7 | – | – | – | –
CC[C@H](C)[C@@H]1NC(=O)[C@H](CC2CCC2)N(C)C(=O)C[C@@H](C(=O)N(C)C)N(C)C(=O)[C@H](C2CCCC2)N(C)C(=O)C2(CC(C)(C)C2)NC(=O)[C@@H]2C[C@H](C)CN2C(=O)[C@H](CCc2cc(F)c(C(F)(F)F)c(F)c2)NC(=O)CN(C)C(=O)[C@H](Cc2ccc(C(F)(F)F)cc2)N2CC/C=C\C[C@@H](C2=O)N(C)C(=O)CN(C)C1=O [PP1684] | – | – | 7.7 | A (a compound having 10 or more and less than 20 is denoted as A) | A (a compound having 10 or more and less than 20 is denoted as A) | – | –
CCC[C@H]1C(=O)N[C@@H]([C@@H](C)CC)C(=O)N(C)CC(=O)N(C)[C@H]2C/C=C\CCN(C2=O)[C@@H](Cc2ccc(C(F)(F)F)cc2)C(=O)N(C)CC(=O)N[C@@H](CCc2ccc3ccn(C)c3c2)C(=O)N2C[C@H](OCC)C[C@H]2C(=O)NC2(CC(C)(C)C2)C(=O)N(C)[C@@H](C(CC)CC)C(=O)N(C)[C@H](C(=O)N(C)C)CC(=O)N1C [PP2912] | A (a compound having 10 or more and less than 20 is denoted as A) | AA (a compound having 20 or more is denoted as AA) | 86 | – | – | – | –
CC[C@H](C)[C@@H]1NC(=O)[C@H](CC)N(C)C(=O)C[C@@H](C(=O)N(CC)CC)N(C)C(=O)[C@H](C2CCCC2)N(C)C(=O)C2(CC(C)(C)C2)NC(=O)[C@@H]2C[C@@H](C)CN2C(=O)[C@H](CCc2ccc(C(F)(F)F)c(OC)c2)NC(=O)CN(C)C(=O)[C@H](Cc2ccc(C)cc2)N2CC/C=C\C[C@@H](C2=O)N(C)C(=O)CN(C)C1=O [PP1841] | – | – | 24.3 | A (a compound having 10 or more and less than 20 is denoted as A) | AA (a compound having 20 or more is denoted as AA) | – | –
CCC[C@H]1C(=O)N[C@@H]([C@@H](C)CC)C(=O)N(C)CC(=O)N(C)[C@H]2C/C=C\CCN(C2=O)[C@@H](Cc2ccc(C)cc2)C(=O)N(C)CC(=O)N[C@@H](CCc2ccc(C(F)(F)F)c(OC)c2)C(=O)N2C[C@H](OCC)C[C@H]2C(=O)N(C)C2(CCC2)C(=O)N(C)[C@@H](C2CCCC2)C(=O)N(C)[C@H](C(=O)N2CCCCC2)CC(=O)N1C [PP3104] | A (a compound having 10 or more and less than 20 is denoted as A) | A (a compound having 10 or more and less than 20 is denoted as A) | 3.8 | – | – | – | –
CCC[C@H]1C(=O)N[C@@H]([C@@H](C)CC)C(=O)N(C)CC(=O)N(C)[C@H]2C/C=C\CCN(C2=O)[C@@H](Cc2ccc(C(F)(F)F)cc2)C(=O)N(C)CC(=O)N[C@@H](CCc2cc(F)c(C(F)(F)F)c(F)c2)C(=O)N2C[C@H](OCC)C[C@H]2C(=O)NC2(CCC2)C(=O)N(C)[C@@H](C2CCCC2)C(=O)N(C)[C@H](C(=O)N(C)C)CC(=O)N1C [PP1110] | B (a compound having 3 or more and less than 10 is denoted as B) | A (a compound having 10 or more and less than 20 is denoted as A) | 11.2 | – | – | – | –
CCCOC[C@H]1C(=O)N[C@@H]([C@@H](C)CC)C(=O)N(C)CC(=O)N(C)[C@H]2C/C=C\CCN(C2=O)[C@@H](Cc2ccc(C(F)(F)F)cc2)C(=O)N(C)CC(=O)N[C@@H](CCc2ccc(C(F)(F)F)c(Cl)c2)C(=O)N2C[C@H](OCC)C[C@H]2C(=O)NC2(CC(C)(C)C2)C(=O)N(C)[C@@H](C2CCCC2)C(=O)N(C)[C@H](C(=O)N(C)C)CC(=O)N1C [PP1754] | – | – | 3 | A (a compound having 10 or more and less than 20 is denoted as A) | A (a compound having 10 or more and less than 20 is denoted as A) | – | –
